Tested on: yeast genes (level of expressed mRNA)
Experiment: DNA chip analysis of expressed mRNA of yeast genes after 2 h culture with a toxic chemical substance
Format: cell-based, Saccharomyces cerevisiae S288C
Description: Yeast (Saccharomyces cerevtisiae S288C (α SUC2mal mel gap2 CUP1)) were cultured at 25° C. on YPD medium (yeast extract 1%, polypepton 2%, glucose 2%). One of toxic chemical substances was added to the cell at logarithmic growth phase, and the cell was further cultured for two hours. Cell was cultured without any chemical substance in the same condition, and was used as control. Concentrations of the chemical substances were defined to inhibit the growth of the yeast but not lead to death.
After the completion of cultivation, the culture was centrifuged to collect the cells. To the cells, sodium acetate buffer (50 mM sodium acetate, 10 mM EDTA, 1% SDS) was added, and the mixture was shaken at 65° C. for five minutes, followed by returning to room temperature, and obtaining the supernatant, which procedure was repeated two times. To the supernatant, ½ amount of a solution of phenol/chloroform was added, and the mixture was centrifuged to give a supernatant, which was added with an equal amount of chloroform, and the mixture was centrifuged to give a supernatant. To the supernatant, an equal amount of isopropanol containing 0.3 M sodium acetate was added, and the mixture was allowed to stand at room temperature for 30 minutes, after which the mixture was centrifuged to give a sediment of the whole RNAs. Seventy % ethanol was added to the sediment, and the mixture was again centrifuged to give a sediment, which was then dried and dissolved in water. mRNA was isolated from the whole RNAs as followings. In view of the fact that a poly A chain is attached to the 3′ terminus of mRNA, a polynucleotide having a poly T structure which was immobilized on the surface of latex beads was used to trap the mRNA, and then the mRNA was washed and eluted with spine column (Oligotex-dT30<Super>mRNA Purification Kit, Takara). Reverse transcription of the mRNA was conducted with a reverse transcriptase (Super Script II Reverse Transcriptase; catalogue No. 18064-014, GibcoBRL) using fluorescence-labeled nucleotides to give cDNAs that were introduced with Cy3-dUTP or Cy5-dUTP during the reverse transcription.
The labeled cDNAs were dissolved in TE buffer (10 mM Tris-HCl/1 mM EDTA, pH8.0), and the solution was dropped on the DNA chip containing the whole genes of yeast (DNA Chip Research Inc. Japan) so that the cDNAs were hybridized on the DNA chip at 65° C. for over 12 hours. The fluoresces intensity of the DNA chip was read with a scanner, and the ratio relative to the fluorescence intensity resulting from the absence of chemical substance was estimated as the following, which is shown in Tables 1 to 9: [formula]
In the Tables, “Intensity” indicated in the rightmost column is a value of the level of expressed mRNA of each gene in control cells as divided by the average level of the expressions of the whole genes.

manganese ethylenebis(dithiocarbamate) [(8)]
The level of expressed mRNA in the presence of chemical substance/ (yeast gene YAL053W, ratio to control without chemical): 0.8 | The level of expressed mRNA in the presence of chemical substance/The level of expressed mRNA in the absence of chemical substance (yeast gene YAR010C): 1.3 | The level of expressed mRNA in the presence of chemical substance/The level of expressed mRNA in the absence of chemical substance (yeast gene YBL005W-A): 1.0 | The level of expressed mRNA in the presence of chemical substance/The level of expressed mRNA in the absence of chemical substance (yeast gene YBL041W): 1.7 | The level of expressed mRNA in the presence of chemical substance/The level of expressed mRNA in the absence of chemical substance (yeast gene YBL043W): 2.1 | The level of expressed mRNA in the presence of chemical substance/ (yeast gene YBL048W, ratio to control without chemical substance, 2 h culture): 1.2 | The level of expressed mRNA in the presence of chemical substance/The level of expressed mRNA in the absence of chemical substance (yeast gene YBL078C): 1.6 | The level of expressed mRNA in the presence of chemical substance/ (yeast gene YBL107C, ratio to control without chemical substance, 2 h culture): 1.9 | The level of expressed mRNA in the presence of chemical substance/in the absence of chemical substance (yeast gene YBR036C): 0.7 | The level of expressed mRNA in the presence of chemical substance/The level of expressed mRNA in the absence of chemical substance (yeast gene YBR214W): 0.7 | The level of expressed mRNA in the presence of chemical substance/in the absence of chemical substance (yeast gene YBR298C): 0.5 | The level of expressed mRNA in the presence of chemical substance/The level of expressed mRNA in the absence of chemical substance (yeast gene YCL020W): 1.7 | The level of expressed mRNA in the presence of chemical substance/The level of expressed mRNA in the absence of chemical substance (yeast gene YCL027W): 0.6 | The level of expressed mRNA in the presence of chemical substance/The level of expressed mRNA in the absence of chemical substance (yeast gene YCR004C): 1.2 | The level of expressed mRNA in the presence of chemical substance/The level of expressed mRNA in the absence of chemical substance (yeast gene YCR071C): 0.9 | The level of expressed mRNA in the presence of chemical substance/The level of expressed mRNA in the absence of chemical substance (yeast gene YCR088W): 0.5 | The level of expressed mRNA in the presence of chemical substance/The level of expressed mRNA in the absence of chemical substance (yeast gene YDL008W): 1.2 | The level of expressed mRNA in the presence of chemical substance/ (yeast gene YDL072C, ratio to control without chemical): 0.8 | The level of expressed mRNA in the presence of chemical substance/in the absence of chemical substance (yeast gene YDL078C): 1.0 | The level of expressed mRNA in the presence of chemical substance/ (yeast gene YDL204W, ratio to control without chemical): 1.1 | The level of expressed mRNA in the presence of chemical substance/in the absence of chemical substance (yeast gene YDL215C): 1.1 | The level of expressed mRNA in the presence of chemical substance/ (yeast gene YDL222C, ratio to control without chemical): 0.7 | The level of expressed mRNA in the presence of chemical substance/The level of expressed mRNA in the absence of chemical substance (yeast gene YDL238C): 5.8 | The level of expressed mRNA in the presence of chemical substance/The level of expressed mRNA in the absence of chemical substance (yeast gene YDR055W): 1.6 | The level of expressed mRNA in the presence of chemical substance/The level of expressed mRNA in the absence of chemical substance (yeast gene YDR084C): 0.7 | The level of expressed mRNA in the presence of chemical substance/The level of expressed mRNA in the absence of chemical substance (yeast gene YDR085C): 2.0 | The level of expressed mRNA in the presence of chemical substance/The level of expressed mRNA in the absence of chemical substance (yeast gene YDR104C): 1.3 | The level of expressed mRNA in the presence of chemical substance/The level of expressed mRNA in the absence of chemical substance (yeast gene YDR115W): 1.3 | The level of expressed mRNA in the presence of chemical substance/The level of expressed mRNA in the absence of chemical substance (yeast gene YDR259C): 1.4 | The level of expressed mRNA in the presence of chemical substance/in the absence of chemical substance (yeast gene YDR297W): 1.5 | The level of expressed mRNA in the presence of chemical substance/The level of expressed mRNA in the absence of chemical substance (yeast gene YDR315C): 1.4 | The level of expressed mRNA in the presence of chemical substance/ (yeast gene YDR330W, ratio to control without chemical substance, 2 h culture): 1.1 | The level of expressed mRNA in the presence of chemical substance/The level of expressed mRNA in the absence of chemical substance (yeast gene YDR358W): 1.2 | The level of expressed mRNA in the presence of chemical substance/in the absence of chemical substance (yeast gene YDR387C): 0.7 | The level of expressed mRNA in the presence of chemical substance/The level of expressed mRNA in the absence of chemical substance (yeast gene YDR388W): 0.8 | The level of expressed mRNA in the presence of chemical substance/ (yeast gene YDR411C, ratio to control without chemical substance, 2 h culture): 0.9 | The level of expressed mRNA in the presence of chemical substance/The level of expressed mRNA in the absence of chemical substance (yeast gene YDR432W): 0.5 | The level of expressed mRNA in the presence of chemical substance/The level of expressed mRNA in the absence of chemical substance (yeast gene YDR481C): 1.0 | The level of expressed mRNA in the presence of chemical substance/The level of expressed mRNA in the absence of chemical substance (yeast gene YDR510W): 1.5 | The level of expressed mRNA in the presence of chemical substance/ (yeast gene YDR511W, ratio to control without chemical substance, 2 h culture): 1.7 | The level of expressed mRNA in the presence of chemical substance/ (yeast gene YDR545W, ratio to control without chemical substance, 2 h culture): 0.6 | The level of expressed mRNA in the presence of chemical substance/ (yeast gene YEL001C, ratio to control without chemical): 1.2 | The level of expressed mRNA in the presence of chemical substance/The level of expressed mRNA in the absence of chemical substance (yeast gene YEL042W): 0.7 | The level of expressed mRNA in the presence of chemical substance/The level of expressed mRNA in the absence of chemical substance (yeast gene YEL066W): 1.4 | The level of expressed mRNA in the presence of chemical substance/ (yeast gene YER004W, ratio to control without chemical substance, 2 h culture): 1.1 | The level of expressed mRNA in the presence of chemical substance/ (yeast gene YER035W, ratio to control without chemical substance, 2 h culture): 1.2 | The level of expressed mRNA in the presence of chemical substance/The level of expressed mRNA in the absence of chemical substance (yeast gene YER039C): 0.7 | The level of expressed mRNA in the presence of chemical substance/ (yeast gene YER079W, ratio to control without chemical substance, 2 h culture): 1.4 | The level of expressed mRNA in the presence of chemical substance/ (yeast gene YER106W, ratio to control without chemical): 1.2 | The level of expressed mRNA in the presence of chemical substance/The level of expressed mRNA in the absence of chemical substance (yeast gene YER107C): 0.8 | The level of expressed mRNA in the presence of chemical substance/The level of expressed mRNA in the absence of chemical substance (yeast gene YER130C): 1.2 | The level of expressed mRNA in the presence of chemical substance/ (yeast gene YER158C, ratio to control without chemical substance, 2 h culture): 0.9 | The level of expressed mRNA in the presence of chemical substance/ (yeast gene YER163C, ratio to control without chemical substance, 2 h culture): 1.4 | The level of expressed mRNA in the presence of chemical substance/ (yeast gene YER175C, ratio to control without chemical substance, 2 h culture): 1.1 | The level of expressed mRNA in the presence of chemical substance/ (yeast gene YFL006W, ratio to control without chemical substance, 2 h culture): 1.0

— US20050112573A1, “Method of detecting toxic substance” (priority 2001, published 2005)
